In the assay the target is p38a activated, mitogen-activated protein kinase-activated protein kinase 2 (MAPKAP-K2 or MK2) enzyme (Homo sapiens (Human), UniProt P49137). Briefly: MK2 Omnia continuous-read kinase assay for compound potency. Type of assay: biochemical. The settings on record: [MK-2]=0.4 nM, [ATP]=10 μM, [ST3-Sox]=10 μM; room temperature. The gist of the method:
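Continuous Sox-peptide fluorescence read (ex360/em485) every 71 s over 2 h at room temperature. Reactions: 10 μM each of ATP (at apparent Km) and S/T3-Sox, 0.4 nM p38a-activated MK2, pH 7.5 Tris/MgCl2 buffer. Initial rates yield % inhibition and IC50; single-exponential kobs values yield apparent kinact/KI.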

The structures appear in SMILES notation.

As a reminder, the IC50 is the point on the concentration scale where inhibition reaches its midpoint.

Sequence of p38a activated, mitogen-activated protein kinase-activated protein kinase 2 (MAPKAP-K2 or MK2) enzyme (P49137 whole entry): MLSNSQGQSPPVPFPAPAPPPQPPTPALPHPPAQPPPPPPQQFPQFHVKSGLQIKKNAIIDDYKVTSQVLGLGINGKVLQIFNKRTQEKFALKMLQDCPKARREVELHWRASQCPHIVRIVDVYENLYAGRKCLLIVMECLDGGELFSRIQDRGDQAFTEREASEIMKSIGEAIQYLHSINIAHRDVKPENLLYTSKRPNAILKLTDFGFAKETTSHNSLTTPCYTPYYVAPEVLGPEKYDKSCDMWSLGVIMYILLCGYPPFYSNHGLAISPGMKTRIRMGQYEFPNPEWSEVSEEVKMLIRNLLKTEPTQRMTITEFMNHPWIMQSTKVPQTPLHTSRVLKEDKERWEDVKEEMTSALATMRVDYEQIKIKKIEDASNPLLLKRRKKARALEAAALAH

As to `C=Cc1nc2c(c(-c3ccc4c(ccc5sc6c(c54)NC[C@@H](C)NC6=O)n3)n1)CN(C)CC2` [Example I-191, (R)-10-methyl-3-(6-methyl-2-vinyl-5,6,7,8-tetrahydropyrido[4,3-d]pyrimidin-4-yl)-9,10,11,12-tetrahydro-8H-[1,4]diazepino[5′,6′:4,5]thieno[3,2-f]quinolin-8-one], the IC50 came to 289 nM.
Take `C#Cc1nc2c(c(-c3ccc4c(ccc5sc6c(c54)NC[C@@H](C)NC6=O)n3)n1)CN(C)CC2` [Example I-193, (R)-3-(2-ethynyl-6-methyl-5,6,7,8-tetrahydropyrido[4,3-d]pyrimidin-4-yl)-10-methyl-9,10,11,12-tetrahydro-8H-[1,4]diazepino[5′,6′:4,5]thieno[3,2-f]quinolin-8-one]: the IC50 stood at 526 nM.
As for `C[C@@H]1CNc2c(sc3ccc4nc(-c5cc(Cl)ncn5)ccc4c23)C(=O)N1` [Example I-11, (R)-3-(6-chloropyrimidin-4-yl)-10-methyl-9,10,11,12-tetrahydro-8H-[1,4]diazepino[5′,6′:4,5]thieno[3,2-f]quinolin-8-one], the IC50 is 2 nM.
Consider `C=Cc1cc(-c2ccc3c(ccc4sc5c(c43)NC[C@@H](C)NC5=O)n2)cc(CN2CCC(OC(F)(F)F)CC2)n1` [Example I-189, (R)-10-methyl-3-(2-((4-(trifluoromethoxy)piperidin-1-yl)methyl)-6-vinylpyridin-4-yl)-9,10,11,12-tetrahydro-8H-[1,4]diazepino[5′,6′:4,5]thieno[3,2-f]quinolin-8-one], for which the IC50 was found to be 206 nM.
As for `C=Cc1cc(-c2ccc3c(ccc4sc5c(c43)NC[C@@H](C)NC5=O)n2)cc(N2CCOCC2)n1` [Example I-156, (R)-10-methyl-3-(2-morpholino-6-vinylpyridin-4-yl)-9,10,11,12-tetrahydro-8H-[1,4]diazepino[5′,6′:4,5]thieno[3,2-f]quinolin-8-one], the IC50 came out at 23 nM.
As for `C=Cc1cc(-c2ccc3c(ccc4sc5c(c43)NC[C@@H](C)NC5=O)n2)c(OCCN2CCCC2)nn1` [Example I-118, (R)-10-methyl-3-(3-(2-(pyrrolidin-1-yl)ethoxy)-6-vinylpyridazin-4-yl)-9,10,11,12-tetrahydro-8H-[1,4]diazepino[5′,6′:4,5]thieno[3,2-f]quinolin-8-one], the figure is 28 nM; as for `C#Cc1cc(-c2ccc3c(ccc4sc5c(c43)NC[C@@H](C)NC5=O)n2)cc(CN2CCC(F)(F)CC2)n1` [Example I-124, (R)-3-(2-((4,4-difluoropiperidin-1-yl)methyl)-6-ethynylpyridin-4-yl)-10-methyl-9,10,11,12-tetrahydro-8H-[1,4]diazepino[5′,6′:4,5]thieno[3,2-f]quinolin-8-one], 125 nM; as for `C=Cc1nccc(-c2ccc3c(ccc4sc5c(c43)NC[C@@H](C)NC5=O)n2)c1F` [Example I-217, (R)-3-(3-fluoro-2-vinylpyridin-4-yl)-10-methyl-9,10,11,12-tetrahydro-8H-[1,4]diazepino[5′,6′:4,5]thieno[3,2-f]quinolin-8-one], 78 nM.
Regarding `C#Cc1cc(-c2ccc3c(ccc4sc5c(c43)NC[C@@H](C)NC5=O)n2)cc(N2CCN(CC)CC2)n1` [Example I-174, (R)-3-(2-(4-ethylpiperazin-1-yl)-6-ethynylpyridin-4-yl)-10-methyl-9,10,11,12-tetrahydro-8H-[1,4]diazepino[5′,6′:4,5]thieno[3,2-f]quinolin-8-one], the IC50 was determined as 98 nM.
As for `C[C@@H]1CNc2c(sc3ccc4nc(-c5cc(Cl)nnc5OCCN5CCCC5)ccc4c23)C(=O)N1` [Example I-119, (R)-3-(6-chloro-3-(2-(pyrrolidin-1-yl)ethoxy)pyridazin-4-yl)-10-methyl-9,10,11,12-tetrahydro-8H-[1,4]diazepino[5′,6′:4,5]thieno[3,2-f]quinolin-8-one], the figure is 981 nM.
On to `C[C@@H]1CNc2c(sc3ccc4nc(-c5cc(Cl)nc(CO)n5)ccc4c23)C(=O)N1` [Example I-74, (R)-3-(6-chloro-2-(hydroxymethyl)pyrimidin-4-yl)-10-methyl-9,10,11,12-tetrahydro-8H-[1,4]diazepino[5′,6′:4,5]thieno[3,2-f]quinolin-8-one], for which the IC50 amounted to 4 nM.
Take `C#Cc1cc(-c2ccc3c(ccc4sc5c(c43)NC[C@@H](C)NC5=O)n2)nc(N2CCN(C)CC2)n1` [Example I-59, (R)-3-(6-ethynyl-2-(4-methylpiperazin-1-yl)pyrimidin-4-yl)-10-methyl-9,10,11,12-tetrahydro-8H-[1,4]diazepino[5′,6′:4,5]thieno[3,2-f]quinolin-8-one]: the IC50 stood at 3 nM.
As to `C/C=C/c1cc(-c2ccc3c(ccc4sc5c(c43)NC[C@@H](C)NC5=O)n2)ccn1` [Example I-113, (R,E)-10-methyl-3-(2-(prop-1-en-1-yl)pyridin-4-yl)-9,10,11,12-tetrahydro-8H-[1,4]diazepino[5′,6′:4,5]thieno[3,2-f]quinolin-8-one], the IC50 came out at 53 nM.
As to `C[C@@H]1CNc2c(sc3ccc4nc(-c5cc(Cl)nnc5OCCN5CCOCC5)ccc4c23)C(=O)N1` [Example I-132, (R)-3-(6-chloro-3-(2-morpholinoethoxy)pyridazin-4-yl)-10-methyl-9,10,11,12-tetrahydro-8H-[1,4]diazepino[5′,6′:4,5]thieno[3,2-f]quinolin-8-one], the IC50 was 912 nM.
On to `C[C@@H]1CNc2c(sc3ccc4nc(-c5cc(CO)nc(Cl)n5)ccc4c23)C(=O)N1` [Example I-84, (R)-3-(2-chloro-6-(hydroxymethyl)pyrimidin-4-yl)-10-methyl-9,10,11,12-tetrahydro-8H-[1,4]diazepino[5′,6′:4,5]thieno[3,2-f]quinolin-8-one], for which the half-maximal inhibitory concentration (IC50) was 39 nM.
On to `C=Cc1noc(C)c1-c1ccc2c(ccc3sc4c(c32)NC[C@@H](C)NC4=O)n1` [Example I-227, (R)-10-methyl-3-(5-methyl-3-vinylisoxazol-4-yl)-9,10,11,12-tetrahydro-8H-[1,4]diazepino[5′,6′:4,5]thieno[3,2-f]quinolin-8-one], for which the concentration for half-maximal inhibition (IC50) amounted to 418 nM.
As for `C[C@@H]1CNc2c(sc3ccc4nc(-c5ccnc(/C=C/CN(C)C)c5)ccc4c23)C(=O)N1` [Example I-114, (R,E)-3-(2-(3-(dimethylamino)prop-1-en-1-yl)pyridin-4-yl)-10-methyl-9,10,11,12-tetrahydro-8H-[1,4]diazepino[5′,6′:4,5]thieno[3,2-f]quinolin-8-one], the figure is 11 nM; as for `C#Cc1nc(-c2ccc3c(ccc4sc5c(c43)NC[C@@H](C)NC5=O)n2)cc(N2CCN(C)CC2)n1` [Example I-60, (R)-3-(2-ethynyl-6-(4-methylpiperazin-1-yl)pyrimidin-4-yl)-10-methyl-9,10,11,12-tetrahydro-8H-[1,4]diazepino[5′,6′:4,5]thieno[3,2-f]quinolin-8-one], 58 nM; as for `C[C@@H]1CNc2c(sc3ccc4nc(-c5cc(Cl)nc(C6=CCN(C)CC6)c5)ccc4c23)C(=O)N1` [Example I-100, (R)-3-(6-chloro-1′-methyl-1′,2′,3′,6′-tetrahydro-[2,4′-bipyridin]-4-yl)-10-methyl-9,10,11,12-tetrahydro-8H-[1,4]diazepino[5′,6′:4,5]thieno[3,2-f]quinolin-8-one], 62 nM.
In the case of `C=Cc1nccn1-c1ccc2c(ccc3sc4c(c32)NC[C@@H](C)NC4=O)n1` [Example I-164, (R)-10-methyl-3-(2-vinyl-1H-imidazol-1-yl)-9,10,11,12-tetrahydro-8H-[1,4]diazepino[5′,6′:4,5]thieno[3,2-f]quinolin-8-one] it was 1 nM.
Take `C=C(C)c1ncc(F)c(-c2ccc3c(ccc4sc5c(c43)NC[C@@H](C)NC5=O)n2)n1` [Example I-47, (R)-3-(5-fluoro-2-(prop-1-en-2-yl)pyrimidin-4-yl)-10-methyl-9,10,11,12-tetrahydro-8H-[1,4]diazepino[5′,6′:4,5]thieno[3,2-f]quinolin-8-one]: the IC50 turned out to be 429 nM.
As for `C=Cc1ncnn1-c1ccc2c(ccc3sc4c(c32)NC[C@@H](C)NC4=O)n1` [Example I-214, (R)-10-methyl-3-(5-vinyl-1H-1,2,4-triazol-1-yl)-9,10,11,12-tetrahydro-8H-[1,4]diazepino[5′,6′:4,5]thieno[3,2-f]quinolin-8-one], the 50% inhibitory concentration (IC50) stood at 2 nM.
As to `C=Cc1cc(-c2ccc3c(ccc4sc5c(c43)NC[C@@H](C)NC5=O)n2)c(N(C)C)nn1` [Example I-129, (R)-3-(3-(dimethylamino)-6-vinylpyridazin-4-yl)-10-methyl-9,10,11,12-tetrahydro-8H-[1,4]diazepino[5′,6′:4,5]thieno[3,2-f]quinolin-8-one], the IC50 came to 106 nM.
For `C=Cc1cc(-c2ccc3c(ccc4sc5c(c43)NC[C@@H](C)NC5=O)n2)nc(COCC)n1` [Example I-22, (R)-3-(2-(ethoxymethyl)-6-vinylpyrimidin-4-yl)-10-methyl-9,10,11,12-tetrahydro-8H-[1,4]diazepino[5′,6′:4,5]thieno[3,2-f]quinolin-8-one], the IC50 came out at 2 nM.
In the case of `C=Cc1ncc(-c2ccc3c(ccc4sc5c(c43)NC[C@@H](C)NC5=O)n2)[nH]1` [Example I-150, (R)-10-methyl-3-(2-vinyl-1H-imidazol-5-yl)-9,10,11,12-tetrahydro-8H-[1,4]diazepino[5′,6′:4,5]thieno[3,2-f]quinolin-8-one] it was 14 nM.
For the compound `C/C=C\c1ncc(COCC)c(-c2ccc3c(ccc4sc5c(c43)NC[C@@H](C)NC5=O)n2)n1` [Example I-49, (R,Z)-3-(5-(ethoxymethyl)-2-(prop-1-en-1-yl)pyrimidin-4-yl)-10-methyl-9,10,11,12-tetrahydro-8H-[1,4]diazepino[5′,6′:4,5]thieno[3,2-f]quinolin-8-one], the IC50 turned out to be 474 nM.
Consider `C=Cc1ncc(COC2(C)COC2)c(-c2ccc3c(ccc4sc5c(c43)NC[C@@H](C)NC5=O)n2)n1` [Example I-29, (R)-10-methyl-3-(5-(((3-methyloxetan-3-yl)oxy)methyl)-2-vinylpyrimidin-4-yl)-9,10,11,12-tetrahydro-8H-[1,4]diazepino[5′,6′:4,5]thieno[3,2-f]quinolin-8-one], for which the half-inhibitory concentration (IC50) was 20 nM.

The values are drawn from US20240190890A1, “MK2 INHIBITORS AND USES THEREOF” (Bristol-Myers Squibb Company, priority 2022, published 2024).
